# Patent publication US11986487B2, “Mixture of HMOS for treating wheat sensitivity” (GLYCOM A/S, priority 2017, dated 2024)
# System: human LS174T cell culture model of goblet cells
# Assay: Goblet cell gene expression by quantitative RT-PCR
# Format: cell-based
# Settings: 5 mg HMO/ml, compared to control cultures
# Procedure: 2′-FL and LNnT are tested with respect to their ability to induce MUC2, TFF3, EIMβ, CHST5, and GAL3ST2 expression in the human LS174T cell culture model of goblet cells. The human LS174T cell line is obtained from the American Type Culture Collection (ATCC). LS174T cells are maintained in minimum essential medium (MEM) supplemented according to instructions at 37° C. in air containing 5% of CO2. 2′-FL and LNnT are dissolved in cell culture grade water to the required concentration. The LS174T cells are treated with the HMO solution containing 0 or 5 mg HMO/ml. The LS174T cells are collected and suspended in Trizol reagent and total RNA is isolated using an RNA analysis kit (Qiagen) according to the manufacturer's instructions and the RNA isolates are quantified using Nanodrop analysis (Thermo Fisher Scientific). RNA isolates are reverse transcribed using a high capacity cDNA Reverse Transcription Kit (Applied Biosystems) to create cDNA, which is then used to assess gene expression via quantitative RT-PCR. For the quantitative RT-PCR, specific TaqMAN gene expression assays are obtained from Applied Biosystems, which include expression assays for MUC2, TFF3, CHST5 and GAL3ST2. Quantitative real-time PCR is performed using TaqMAN PCR Master Mix (Applied Biosystems). Reactions are run in duplicates in a 384-well plate using an Applied Biosystems 7900HT Fast Real-Time PCR System. The results are analysed using SDS 2.3 software and calculated by delta Ct method. All samples are normalized to Gus-β expression and fold induction is calculated over untreated controls. Gene expression is expressed as fold increase compared to HMO-free control cells. The experiment is repeated three times.
Molecule,expression of CHST5,expression of GAL3ST2,expression of the MUC2 gene,expression of the TFF3 gene
2′-fucosyllactose [2′-FL],minimal induction,lack of induction,increases,increases
"CC(=O)N[C@H]1[C@H](O[C@H]2[C@@H](O)[C@@H](CO)O[C@@H](O[C@H]3[C@H](O)[C@@H](O)C(O)O[C@@H]3CO)[C@@H]2O)O[C@H](CO)[C@@H](O[C@@H]2O[C@H](CO)[C@H](O)[C@H](O)[C@H]2O)[C@@H]1O (mixture of isomers) [LNnT, lacto-N-neotetraose]",minimal induction,lack of induction,increases,increases
